Results reported in US10253007B2, “Taxanes compounds, preparation method therefor, and uses thereof” (Jiangsu Tasly Diyi Pharmaceutical Co., Ltd., priority 2013, dated 2019).
Where two headings read alike, the source gives them in different places.

Experiments:
[1] = test system: breast cancer cell line MCF-7; assay: IC50 values on breast cancer cell line MCF-7; assay type: cell-based; details: Homo sapiens
Excerpt: From the activity evaluation data of the above-mentioned preliminary screen, it can be seen that the series of taxanes derivatives synthesized in the present invention have activity (although the activity of PCMI-43 is weakened). Afterward, most of the compounds are picked up from these derivatives to examine their IC50 values on breast cancer cell line MCF-7. Paclitaxel is used as the positive control drug. Experiments for each compound were independently repeated for three times and multiple holes were used in each experiment. The exposure time of drugs was 72 hours.

[2] = Caco-2 cell monolayer membrane transport assay; details: human; for recovery: Caco-2, Recovery rate in mass
Excerpt: (§3) Caco-2 Cell Monolayer Membrane Transport Assay
(§4) Human-derived colorectal adenocarcinoma cell line Caco-2 cell monolayer model was used to study the bidirectional transport of the target compounds from the apical (AP) side to the basolateral (BL) side and from BL side to AP side. HPLC was used for quantitative analysis to calculate transport parameters, apparent permeability coefficient (Papp) and the efflux ratio.

[3] = test system: 16 cancer cell lines; assay: Preliminary cytotoxicity evaluation on 16 cancer cell lines (MTT); assay type: cell-based, human; details: preliminary screen at 1 μM, compared with paclitaxel
Excerpt: (§1) 1. Cytotoxicity Assay Using Human Tumor Cell Lines
(§2) Paclitaxel was used as the positive drug.
In both cancer cell lines of A549 and B16, the cytotoxicity of the taxanes derivatives is slightly lower than that of the positive control drug.

[4] = test system: A2780 ovarian cancer; assay: MTT assay, proliferation inhibition; assay type: cell-based; details: Homo sapiens, read-out: Proliferation inhibition rate
Excerpt: as §1, §2

[5] = test system: A375 melanoma; assay: MTT assay, proliferation inhibition; assay type: cell-based; details: Homo sapiens, A-375, read-out: Proliferation inhibition rate
Excerpt: as §1, §2

[6] = MTT assay, proliferation inhibition; assay type: cell-based; details: Homo sapiens, LN-18 gastric cancer, read-out: Proliferation inhibition rate
Excerpt: as §1, §2

[7] = test system: HL60 leukemia; assay: MTT assay, proliferation inhibition; assay type: cell-based; details: Homo sapiens, HL-60, read-out: Proliferation inhibition rate
Excerpt: as §1, §2

[8] = test system: DU145 prostate cancer; assay: MTT assay, proliferation inhibition; assay type: cell-based; details: Homo sapiens, DU-145, read-out: Proliferation inhibition rate
Excerpt: as §1, §2

[9] = test system: NCI-H460 non-small cell lung cancer; assay: MTT assay, proliferation inhibition; assay type: cell-based; details: Homo sapiens, read-out: Proliferation inhibition rate
Excerpt: as §1, §2

[10] = test system: HCT 116 colon cancer; assay: MTT assay, proliferation inhibition; assay type: cell-based; details: Homo sapiens, read-out: Proliferation inhibition rate
Excerpt: as §1, §2

[11] = test system: HeLa cervical cancer; assay: MTT assay, proliferation inhibition; assay type: cell-based; details: Homo sapiens, read-out: Proliferation inhibition rate
Excerpt: as §1, §2

[12] = test system: MDA-MB-436 breast cancer; assay: MTT assay, proliferation inhibition; assay type: cell-based; details: Homo sapiens, read-out: Proliferation inhibition rate
Excerpt: as §1, §2

[13] = test system: K562 leukemia; assay: MTT assay, proliferation inhibition; assay type: cell-based; details: Homo sapiens, read-out: Proliferation inhibition rate
Excerpt: as §1, §2

[14] = test system: MCF-7 breast cancer; assay: MTT assay, proliferation inhibition; assay type: cell-based; details: Homo sapiens, MCF7, read-out: Proliferation inhibition rate
Excerpt: as §1, §2

[15] = test system: LNCaP prostate cancer; assay: MTT assay, proliferation inhibition; assay type: cell-based; details: Homo sapiens, read-out: Proliferation inhibition rate
Excerpt: as §1, §2

[16] = test system: HT29 colon cancer; assay: MTT assay, proliferation inhibition; assay type: cell-based; details: Homo sapiens, HT-29, read-out: Proliferation inhibition rate
Excerpt: as §1, §2

[17] = test system: B16 melanoma; assay: MTT assay, proliferation inhibition; assay type: cell-based; details: read-out: Proliferation inhibition rate
Excerpt: as §1, §2

[18] = test system: BGC-823 gastric cancer; assay: MTT assay, proliferation inhibition; assay type: cell-based; details: Homo sapiens, read-out: Proliferation inhibition rate
Excerpt: as §1, §2

[19] = test system: A549 non-small cell lung cancer; assay: MTT assay, proliferation inhibition; assay type: cell-based; details: Homo sapiens, read-out: Proliferation inhibition rate
Excerpt: as §1, §2

[20] = test system: Caco-2 cell monolayer; assay: Caco-2 cell monolayer membrane transport assay; details: for efflux ratio / Papp A-B / Papp B-A: Caco-2 cell line (21 days); for efflux ratio: Papp B-A/Papp A-B; for Papp A-B / Papp B-A: bidirectional transport, Table 5
Excerpt: as §3, §4

[21] = MCF7, 72 h, read-out: MCF-7(IC50, nM)
[22] = Caco-2, Papp A-B, Caco-2 cell line (21 days), bidirectional transport, Table 5
[23] = Caco-2, Papp A-B, Mean, Caco-2, A-B, mean of two samples
[24] = Caco-2, Papp A-B, Sample-01, Caco-2, A-B, Sample-01
[25] = Caco-2, Papp A-B, Sample-02, Caco-2, A-B, Sample-02
[26] = Mean, Caco-2, A-B, mean of two samples
[27] = Sample-01, Caco-2, A-B, Sample-01
[28] = Sample-02, Caco-2, A-B, Sample-02

| Structure (SMILES) | Papp A→B [2, 24] [nm/s] | Papp A→B [2, 25] [nm/s] | recovery [2, 26] [%] | recovery [2, 27] [%] | recovery [2, 28] [%] | inhibition at 1 µM [4] [%] | inhibition at 1 µM [5] [%] | inhibition at 1 µM [6] [%] | inhibition at 1 µM [7] [%] | inhibition at 1 µM [8] [%] | inhibition at 1 µM [9] [%] | inhibition at 1 µM [10] [%] | inhibition at 1 µM [11] [%] | inhibition at 1 µM [12] [%] | inhibition at 1 µM [13] [%] | inhibition at 1 µM [14] [%] | inhibition at 1 µM [15] [%] | inhibition at 1 µM [16] [%] | inhibition at 1 µM [17] [%] | inhibition at 1 µM [18] [%] | also measured |
| --- | --- | --- | --- | --- | --- | --- | --- | --- | --- | --- | --- | --- | --- | --- | --- | --- | --- | --- | --- | --- | --- |
| CO[C@H]1C(=O)[C@]2(C)C=C[C@@H](O)[C@](CO)(OC(C)=O)[C@H]2[C@H](OC(=O)c2ccccc2)[C@]2(O)C[C@H](OC(=O)[C@H](O)[C@@H](NC(=O)OC(C)(C)C)c3ccccc3)C(C)=C1C2(C)C [PCMI-44] | 52.8 | 63.9 | 95.8 | 85.7 | 106 | 95.6 | 93.9 | 89.8 | 96.3 | 89.2 | 85.2 | 67.1 | 99.3 | 82.7 | 94.4 | 95.2 | 86.9 | 88.3 | 75.3 | 90.8 | IC50 [1, 21]: 10.9 ± 0.16 nM; Papp B→A ([2]; Caco-2): 272 nm/s; efflux ratio ([2]; Caco-2): 4.76; Papp A→B [2, 22]: 57.2 nm/s; Papp A→B [2, 23]: 58.3 nm/s; cytotoxicity (in words) [3]: remains good cytotoxicity; inhibition at 1 µM [19]: 75.9% |
| CO[C@H]1C[C@H]2OC[C@@]2(OC(C)=O)[C@H]2[C@H](OC(=O)c3ccccc3)[C@]3(O)C[C@H](OC(=O)[C@H](O)[C@@H](NC(=O)OC(C)(C)C)c4ccccc4)C(C)=C([C@@H](OC(=O)N(C)C)C(=O)[C@]12C)C3(C)C [PCMI-22] | 90 | 83.8 | 89.4 | 92.4 | 86.4 | 96.3 | 87.7 | 95.5 | 97.5 | 87.1 | 86.5 | 81.1 | 102 | 81.1 | 92.2 | 85.7 | 80.9 | 87.9 | 74.7 | 92 | IC50 [1, 21]: 1.58 ± 0.04 nM; Papp A→B [2, 23]: 86.9 nm/s; efflux ratio [20]: 4.08; Papp A-B [20]: 8.11 10^−6 cm/s; Papp B-A [20]: 33.11 10^−6 cm/s; inhibition at 1 µM [19]: 69.9% |
| CO[C@H]1C(=O)[C@]2(C)[C@@H](OC(=O)N(C)C)C[C@H]3OC[C@@]3(OC(C)=O)[C@H]2[C@H](OC(=O)c2ccccc2)[C@]2(O)C[C@H](OC(=O)[C@H](O)[C@H](CC(C)C)NC(=O)OC(C)(C)C)C(C)=C1C2(C)C [PCMI-34] | 118 | 95.4 | 67.4 | 71.2 | 63.6 | 95 | 104 | 90.6 | 98.1 | 86.9 | 86.2 | 60.1 | 102 | 81.2 | 92.9 | 101 | 88.7 | 89.2 | 81.4 | 94.7 | IC50 [1, 21]: 13.26 ± 0.12 nM; Papp B→A ([2]; Caco-2): 309 nm/s; efflux ratio ([2]; Caco-2): 1.59; Papp A→B [2, 22]: 194 nm/s; Papp A→B [2, 23]: 107 nm/s; Papp A→B ([2]; Caco-2, Papp A-to-B, Caco-2): > 100 nm/s; membrane permeability (in words) ([20]; Caco-2 monolayer): highly permeable substrates; inhibition at 1 µM [19]: 73.5% |
| CO[C@H]1C(=O)[C@]2(C)C=C[C@@H](O)[C@](CO)(OC(C)=O)[C@H]2[C@H](OC(=O)c2ccccc2)[C@]2(O)C[C@H](OC(=O)[C@H](O)[C@@H](NC(=O)c3ccccc3)c3ccccc3)C(C)=C1C2(C)C [PCMI-43] | 32.1 | 28.9 | 72 | 76.6 | 67.5 | 70 | 77.8 | 73.2 | 76.3 | 63.4 | 62.1 | 46.1 | 52 | 35.7 | 80.9 | 68.3 | 61.2 | 36.4 | 13.3 | 38.2 | Papp A→B [2, 23]: 30.5 nm/s; cytotoxicity (in words) [3]: weakened; inhibition at 1 µM [19]: 53.9% |
| COC(=O)O[C@H]1C(=O)[C@]2(C)[C@@H](OC)C[C@H]3OC[C@@]3(OC(C)=O)[C@H]2[C@H](OC(=O)c2ccccc2)[C@]2(O)C[C@H](OC(=O)[C@H](O)[C@@H](NC(=O)OC(C)(C)C)c3ccccc3)C(C)=C1C2(C)C [PCMI-26] | 84.5 | 90.6 | 81.4 | 80.9 | 82 | 95.8 | 94.2 | 89 | 96.8 | 86.2 | 86.4 | 81.1 | 101 | 76.3 | 91.4 | 95.5 | 79.8 | 88.8 | 69.7 | 89.2 | IC50 ([1]; MCF7, MCF-7, exposure 72 hours, mean±SD of three independent experiments, read-out: MCF-7(IC50)): 1.4 ± 0.1 nM; Papp A→B [2, 23]: 87.5 nm/s; efflux ratio [20]: 4.22; Papp A-B [20]: 6.91 10^−6 cm/s; Papp B-A [20]: 29.18 10^−6 cm/s; inhibition at 1 µM [19]: 66.2% |
| COC(=O)O[C@H]1C[C@H]2OC[C@@]2(OC(C)=O)[C@H]2[C@H](OC(=O)c3ccccc3)[C@]3(O)C[C@H](OC(=O)[C@H](O)[C@H](CC(C)C)NC(=O)OC(C)(C)C)C(C)=C([C@@H](OC)C(=O)[C@]12C)C3(C)C [PCMI-39] | 61.3 | 88.1 | 64.2 | 71.7 | 56.7 | 94.9 | 90.2 | 94.1 | 99.1 | 84.9 | 81.6 | 57.1 | 100 | 78.4 | 92.2 | 100 | 82.8 | 88.4 | 72.3 | 91.7 | IC50 [1, 21]: 2.81 ± 0.02 nM; Papp A→B [2, 23]: 74.7 nm/s; Papp A-B [20]: 7.16 10^−6 cm/s; Papp B-A [20]: 36.37 10^−6 cm/s; inhibition at 1 µM [19]: 67.4% |
| CO[C@H]1C(=O)[C@]2(C)CC[C@H]3OC[C@@]3(OC(C)=O)[C@H]2[C@H](OC(=O)c2ccccc2)[C@]2(O)C[C@H](OC(=O)[C@H](O)[C@H](CC(C)C)NC(=O)OC(C)(C)C)C(C)=C1C2(C)C [PCMI-42] | 78.5 | 64.9 | 74.2 | 81 | 67.3 | 95.6 | 104 | 94.8 | 97.6 | 87 | 84.3 | 66.1 | 99.3 | 79.5 | 94.3 | 97.8 | 82.9 | 88.2 | 78.3 | 92.8 | IC50 [1, 21]: 3.06 ± 0.08 nM; Papp A→B [2, 22]: 75.4 nm/s; efflux ratio [20]: 5.12; Papp B-A [20]: 38.57 10^−6 cm/s; inhibition at 1 µM [19]: 77.6% |
